Data published in paper PMC12070605 (BMC Chemistry, 2025).

Columns and labels:
Assay type in all cases: cell-based, human
MCF-7 cell line [1] = experiment: Annexin V-PI flow cytometry apoptosis assay; conditions: 72 h, untreated 4.5%
MCF-7 cell line [2] = experiment: MTT cytotoxicity assay, MCF-7
MCF-7 cell line [3] = experiment: Cell cycle analysis by flow cytometry; conditions: 72 h, untreated 15.93%

SMILES	percentage of apoptotic cells (MCF-7 cell line [1]; 5 µM)	percentage of apoptotic cells (MCF-7 cell line [1]; 10 µM)	percentage of apoptotic cells (MCF-7 cell line [1]; 20 µM)	improvement of activity compared to Erlotinib (MCF-7 cell line [2])	accumulation of the cells in S phase (MCF-7 cell line [3]; 5 µM)	accumulation of the cells in S phase (MCF-7 cell line [3]; 10 µM)	accumulation of the cells in S phase (MCF-7 cell line [3]; 20 µM)
NNc1nc2ccc(Br)cc2c(=O)n1-c1ccc(Cl)cc1 [7k, 6-bromo-3-(4-chlorophenyl)-2-hydrazineylquinazolin-4(3H)-one]	17.46%	41.2%	56%	6 folds	16.66%	25.65%	30.61%
NNc1nc2ccc(Br)cc2c(=O)n1-c1ccc(F)cc1 [7j, 6-bromo-3-(4-fluorophenyl)-2-hydrazineylquinazolin-4(3H)-one]				6 folds			
